Experimental data taken from US20230250060A1 (IFM Due, Inc., priority 2022, published 2023).

What follows are compounds tested against T1, STING (Homo sapiens, UniProt Q86WV6, G230A/H232R/R293Q/R71H) (assay: STING reporter assay (luciferase) in THP1-Dual KO-IFNAR2 cells stimulated with 2′3′cGAMP). Conditions: 2′3′cGAMP 15 μM final, 24 h, luciferase reporter activity, read-out: Pharmaron, THP1_IFNAR2 STING 24 h Luci Normalized: GeoMean EC50.
T1 construct: host or cells: THP1-Dual KO-IFNAR2 cells
Format: cell-based
Procedure: STING pathway activation by the compounds described herein was measured using TTIP1-Dual™ cells (KO-IFNAR2).
TTIP1-Dual™ KO-IFNAR2 Cells (obtained from invivogen) were maintained in RPMI, 10% FCS, 5 ml P/S, 2 mM L-glut, 10 mM Hepes, and 1 mM sodium pyruvate. Compounds were spotted in empty 384 well tissue culture plates (Greiner 781182) by Echo for a final concentration of 0.0017-100 μM. Cells were plated into the TC plates at 40 μL per well, 2×10E6 cells/mL. For activation with STING ligand, 2′3′cGAMP (MW 718.38, obtained from Invivogen), was prepared in Optimem media.
The following solutions were prepared for each 1×384 plate: • Solution A: 2 mL Optimem with one of the following stimuli: • […] • Solution B: 2 mL Optimem with […] Lipofectamine 2000→Incubate 5 min at RT
2 mL of solution A and 2 ml Solution B was mixed and incubated for 20 min at room temperature (RT). 20 μL of transfection solution (A+B) was added on top of the plated cells, with a final 2′3′cGAMP concentration of 15 μM. The plates were then centrifuged immediately at 340 g for 1 minute, after which they were incubated at 37° C., 5% CO2, >98% humidity for 24 h. Luciferase reporter activity was then measured. EC50 values were calculated by using standard methods known in the art.
Luciferase reporter assay: 10 μL of supernatant from the assay was transferred to white 384-plate with flat bottom and squared wells. One pouch of QUANTI-Luc™ Plus was dissolved in 25 mL of water. 100 μL of QLC Stabilizer per 25 mL of QUANTI-Luc™ Plus solution was added. 50 μL of QUANTI-Luc™ Plus/QLC solution per well was then added. Luminescence was measured on a Platereader (e.g., Spectramax I3X (Molecular Devices GF3637001)).
Luciferase reporter activity was then measured. EC50 values were calculated by using standard methods known in the art.

T1 sequence (Q86WV6 whole entry R71H/G230A/H232R/R293Q): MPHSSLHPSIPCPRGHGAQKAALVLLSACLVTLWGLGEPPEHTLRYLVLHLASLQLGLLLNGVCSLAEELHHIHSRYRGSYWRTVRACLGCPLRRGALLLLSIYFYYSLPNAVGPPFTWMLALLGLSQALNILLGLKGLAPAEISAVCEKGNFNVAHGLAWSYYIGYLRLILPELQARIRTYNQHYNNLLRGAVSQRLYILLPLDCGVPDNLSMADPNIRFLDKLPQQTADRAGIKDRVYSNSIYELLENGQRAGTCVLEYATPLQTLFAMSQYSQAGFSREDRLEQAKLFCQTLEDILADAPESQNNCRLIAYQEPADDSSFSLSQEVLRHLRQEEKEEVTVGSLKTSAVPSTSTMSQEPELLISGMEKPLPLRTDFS

| Compound | EC50 [nM] |
| --- | --- |
| Cc1noc(C)c1C(=O)Nc1c[nH]c2ccc(O[C@H]3C[C@@H](c4ccc(C(F)(F)F)cc4)C3)cc12 [Compound 177, 3,5-dimethyl-N-(5-((1s,3s)-3-(4-(trifluoromethyl)phenyl)cyclobutoxy)-1H-indol-3-yl)isoxazole-4-carboxamide] | 40 to 200 |
| Cc1noc(C)c1C(=O)Nc1c[nH]c2ccc(O[C@H]3C[C@H](c4ccc(C(F)(F)F)cc4)C3)cc12 [Compound 234, 3,5-dimethyl-N-{5-[(1R,3R)-3-[4-(trifluoromethyl)phenyl]cyclobutoxy]-1H-indol-3-yl}-1,2-oxazole-4-carboxamide] | 200 to 1000 |
| Cc1noc(C)c1C(=O)Nc1c[nH]c2ccc(CCOc3ccc(C(F)(F)F)cc3)cc12 [Compound 119, 3,5-dimethyl-N-(5-(2-(4-(trifluoromethyl)phenoxy)ethyl)-1H-indol-3-yl)isoxazole-4-carboxamide] | 200 to 1000 |
| O=C(Nc1c[nH]c2ccc(O[C@H]3C[C@H](c4ccc(C(F)(F)F)cc4)C3)cc12)C12CC(F)(C1)C2 [Compound 133, 3-fluoro-N-(5-((1r,3r)-3-(4-(trifluoromethyl)phenyl)cyclobutoxy)-1H-indol-3-yl)bicyclo[1.1.1]pentane-1-carboxamide] | 40 to 200 |
| O=C(Nc1c[nH]c2ccc(O[C@H]3C[C@@H](c4ccc(C(F)(F)F)cc4)C3)cc12)c1ncccc1F [Compound 174, 3-fluoro-N-(5-((1s,3s)-3-(4-(trifluoromethyl)phenyl)cyclobutoxy)-1H-indol-3-yl)picolinamide] | 200 to 1000 |
| O=C(Nc1c[nH]c2ccc(O[C@H]3C[C@@H](c4ccc(C(F)(F)F)cc4)C3)cc12)c1cncs1 [Compound 178, N-(5-((1s,3s)-3-(4-(trifluoromethyl)phenyl)cyclobutoxy)-1H-indol-3-yl)thiazole-5-carboxamide] | 200 to 1000 |
| CC12CC(C(=O)Nc3c[nH]c4ccc(OCCc5ccc(C(F)(F)F)cc5)cc34)(C1)C2 [Compound 107, 3-methyl-N-(5-(4-(trifluoromethyl)phenethoxy)-1H-indol-3-yl)bicyclo[1.1.1]pentane-1-carboxamide] | 200 to 1000 |
| N#CC12CC(C(=O)Nc3c[nH]c4ccc(COCc5ccc(C(F)(F)F)cc5)cc34)(C1)C2 [Compound 129, 3-cyano-N-(5-(((4-(trifluoromethyl)benzyl)oxy)methyl)-1H-indol-3-yl)bicyclo[1.1.1]pentane-1-carboxamide] | 200 to 1000 |
| N#CC12CC(C(=O)Nc3c[nH]c4ccc(OCCc5ccc(C(F)(F)F)cc5)cc34)(C1)C2 [Compound 106, 3-cyano-N-(5-(4-(trifluoromethyl)phenethoxy)-1H-indol-3-yl)bicyclo[1.1.1]pentane-1-carboxamide] | 200 to 1000 |
| Cc1nnc(C(=O)Nc2c[nH]c3ccc(O[C@H]4C[C@H](c5ccc(C(F)(F)F)cc5)C4)cc23)s1 [Compound 127, 5-methyl-N-(5-((1r,3r)-3-(4-(trifluoromethyl)phenyl)cyclobutoxy)-1H-indol-3-yl)-1,3,4-thiadiazole-2-carboxamide] | 200 to 1000 |
| O=C(Nc1c[nH]c2ccc(O[C@H]3C[C@@H](c4ccc(C(F)(F)F)cc4)C3)cc12)c1ccccn1 [Compound 170, N-(5-((1s,3s)-3-(4-(trifluoromethyl)phenyl)cyclobutoxy)-1H-indol-3-yl)picolinamide] | 1000 to 5000 |
| O=C(Nc1c[nH]c2ccc(OCCc3ccc(C(F)(F)F)cc3)cc12)C12CC(F)(C1)C2 [Compound 108, 3-fluoro-N-(5-(4-(trifluoromethyl)phenethoxy)-1H-indol-3-yl)bicyclo[1.1.1]pentane-1-carboxamide] | 200 to 1000 |
| O=C(Nc1c[nH]c2ccc(OCCc3ccc(C(F)(F)F)cc3)cc12)c1ccccn1 [Compound 124, N-(5-(4-(trifluoromethyl)phenethoxy)-1H-indol-3-yl)picolinamide] | 1000 to 5000 |
| O=C(CC1CC1)Nc1c[nH]c2ccc(OCCc3ccc(C(F)(F)F)cc3)cc12 [Compound 125, 2-cyclopropyl-N-(5-(4-(trifluoromethyl)phenethoxy)-1H-indol-3-yl)acetamide] | 40 to 200 |
| O=C(Nc1c[nH]c2ccc(O[C@H]3C[C@@H](c4ccc(C(F)(F)F)cc4)C3)cc12)c1cscn1 [Compound 192, N-(5-((1s,3s)-3-(4-(trifluoromethyl)phenyl)cyclobutoxy)-1H-indol-3-yl)thiazole-4-carboxamide] | 200 to 1000 |
| O=C(Nc1c[nH]c2ccc(CCOc3ccc(C(F)(F)F)cc3)cc12)c1ncccc1F [Compound 117, 3-fluoro-N-(5-(2-(4-(trifluoromethyl)phenoxy)ethyl)-1H-indol-3-yl)picolinamide] | 200 to 1000 |
| O=C(Nc1c[nH]c2ccc(OCCc3ccc(C(F)(F)F)cc3)cc12)c1nccs1 [Compound 110, N-(5-(4-(trifluoromethyl)phenethoxy)-1H-indol-3-yl)thiazole-2-carboxamide] | 200 to 1000 |
| O=C(Nc1c[nH]c2ccc(O[C@H]3C[C@@H](c4ccc(C(F)(F)F)cc4)C3)cc12)c1nccs1 [Compound 175, N-(5-((1s,3s)-3-(4-(trifluoromethyl)phenyl)cyclobutoxy)-1H-indol-3-yl)thiazole-2-carboxamide] | 200 to 1000 |

The next lines start with the values.

| EC50 [nM] | Compound |
| --- | --- |
| 200 to 1000 | O=C(Nc1c[nH]c2ccc(OCCc3ccc(C(F)(F)F)cc3)cc12)c1ncco1 [Compound 161, N-(5-(4-(trifluoromethyl)phenethoxy)-1H-indol-3-yl)oxazole-2-carboxamide] |
| 1000 to 5000 | O=C(Nc1c[nH]c2ccc(OCC[C@@H]3C[C@@H]4CN(CC(F)(F)F)C[C@@H]4C3)cc12)c1ncccc1F [Compound 187, 3-fluoro-N-(5-(2-((3aR,5r,6aS)-2-(2,2,2-trifluoroethyl)octahydrocyclopenta[c]pyrrol-5-yl)ethoxy)-1H-indol-3-yl)picolinamide] |
| 40 to 200 | O=C(Nc1c[nH]c2ccc(Oc3ccccc3)cc12)c1cnn(Cc2ccc(C(F)(F)F)cc2)c1 [Compound 246, N-(5-phenoxy-1H-indol-3-yl)-1-(4-(trifluoromethyl)benzyl)-1H-pyrazole-4-carboxamide] |
| 200 to 1000 | Cn1ccnc1C(=O)Nc1c[nH]c2ccc(OCC[C@@H]3C[C@@H]4CN(CC(F)(F)F)C[C@@H]4C3)cc12 [Compound 140, 1-methyl-N-(5-(2-((3aR,5r,6aS)-2-(2,2,2-trifluoroethyl)octahydrocyclopenta[c]pyrrol-5-yl)ethoxy)-1H-indol-3-yl)-1H-imidazole-2-carboxamide] |
| 200 to 1000 | O=C(Nc1c[nH]c2ccc(OCC[C@@H]3C[C@@H]4CN(CC(F)(F)F)C[C@@H]4C3)cc12)C1C2COCC21 (stereo partly drawn) [Compound 210, N-(5-(2-((3aR,5r,6aS)-2-(2,2,2-trifluoroethyl)octahydrocyclopenta[c]pyrrol-5-yl)ethoxy)-1H-indol-3-yl)-3-oxabicyclo[3.1.0]hexane-6-carboxamide] |
| 5000 to 100000 | Cc1oncc1C(=O)Nc1c[nH]c2ccc(OCC[C@@H]3C[C@@H]4CN(CC(F)(F)F)C[C@@H]4C3)cc12 [Compound 159, 5-methyl-N-(5-(2-((3aR,5r,6aS)-2-(2,2,2-trifluoroethyl)octahydrocyclopenta[c]pyrrol-5-yl)ethoxy)-1H-indol-3-yl)isoxazole-4-carboxamide] |
| 200 to 1000 | Cn1cc(C(=O)Nc2c[nH]c3ccc(OCC[C@@H]4C[C@@H]5CN(CC(F)(F)F)C[C@@H]5C4)cc23)nn1 [Compound 242, N-(5-{2-[(3aR,5R,6aS)-2-(2,2,2-trifluoroethyl)octahydrocyclopenta[c]pyrrol-5-yl]ethoxy}-1H-indol-3-yl)-1-methyl-1H-1,2,3-triazole-4-carboxamide] |
| 200 to 1000 | CC12CC(C(=O)Nc3c[nH]c4ccc(CCOc5ccc(C(F)(F)F)cc5)cc34)(C1)C2 [Compound 199, 3-methyl-N-(5-(2-(4-(trifluoromethyl)phenoxy)ethyl)-1H-indol-3-yl)bicyclo[1.1.1]pentane-1-carboxamide] |
| 200 to 1000 | Cn1cc(C(=O)Nc2c[nH]c3ccc(CCOc4ccc(C(F)(F)F)cc4)cc23)nn1 [Compound 243, 1-methyl-N-(5-(2-(4-(trifluoromethyl)phenoxy)ethyl)-1H-indol-3-yl)-1H-1,2,3-triazole-4-carboxamide] |
| 200 to 1000 | Cn1ccnc1C(=O)Nc1c[nH]c2ccc(OCc3ccc(C(F)(F)F)cc3)cc12 [Compound 136, 1-methyl-N-(5-((4-(trifluoromethyl)benzyl)oxy)-1H-indol-3-yl)-1H-imidazole-2-carboxamide] |
| 200 to 1000 | O=C(CC1CC1)Nc1c[nH]c2ccc(CCOc3ccc(C(F)(F)F)cc3)cc12 [Compound 197, 2-cyclopropyl-N-(5-(2-(4-(trifluoromethyl)phenoxy)ethyl)-1H-indol-3-yl)acetamide] |
